Data on 1 compound can be found in publication PMC7901654, “Bioisosteric Discovery of NPA101.3, a Second-Generation RET/VEGFR2 Inhibitor Optimized for Single-Agent Polypharmacology” (Journal of Medicinal Chemistry, 2020).

Molecules are shown by their SMILES. “Also recorded” adds a separate entry of the source.

In one series the target is T1, hERG (Homo sapiens, UniProt Q12809).
T1 construct: host or cells: HEK293, tetracycline-inducible hERG
In words: hERG patch-clamp assay. Type of series: cell-based.

Series [1] concerns RET-driven Ba/F3 cells (RET/C634R, RET/M918T, CCDC6-RET). In words: Cell growth curves, RET-driven Ba/F3 cells taken together. It is filed as cell-based, murine. As to conditions: Mus musculus, BaF3; range over RET-transfected Ba/F3 lines; read-out: IC50, RET-driven Ba/F3 cell proliferation. The source says: The murine pro-B cell line Ba/F3 requires IL-3 (interleukin 3) for proliferation and survival; this dependency is bypassed by active tyrosine kinases. Therefore, the Ba/F3 cell line is a standard cell culture model for determining the activity and drug-mediated inhibition of tyrosine kinases.[42] Accordingly, stable transfection of RET/C634R, RET/M918T, and CCDC6-RET oncoproteins promotes IL-3-independent growth (Figure 5).
Nthy-ory-3-1 (10000 per well), TPC-1 (10000 per well), MZ-CRC-1 (100000 per well), TT (200000 per well), Lc-2/ad (100000 per well), BCPAP (10000 per well), 8505-C (10000 per well), PC-9 (10000 per well), A549 (10000 per well), CALU-1 (10000 per well), NIH3T3 RET/C634Y (10000 per well), and NIH3T3 HRAS/G12V (10000 per well) were seeded in six-well tissue culture plates. Cells were kept in 2% (TPC-1), 5% (Nthy-ori-3-1), or 10% (BCPAP, 8505-C, CALU-1, A549, PC-9, TT, MZ-CRC-1, and Lc-2/ad) fetal calf serum or in 2% (NIH3T3 RET/C634Y and HRAS/G12V) calf serum. Ba/F3 cells (200000 per well in 2 mL) were seeded in six-well tissue culture plates and kept in 10% fetal calf serum. […] Cells were counted every day (Ba/F3), every 2 days (fibroblasts), or every 2–3 days (human cell lines). […] IC50 doses were calculated through a curve fitting analysis from last day of growth curves using the PRISM software program (Graphpad Software Inc.).

The subject of series [2] is RET mutant TT, MZ-CRC-1, TPC-1, and Lc-2/ad human cancer cells. In words: Cell growth curves, RET mutant human cancer cells taken together. It is filed as cell-based. As to conditions: range over TT, MZ-CRC-1, TPC-1, Lc-2/ad, read-out: IC50, proliferation of RET mutant human cancer cells. On the procedure:
The IC50 dose for all human RET-negative cells was >100.0 nM, confirming compound selectivity (Figure S8 and Table S4).
Nthy-ory-3-1 (10000 per well), TPC-1 (10000 per well), MZ-CRC-1 (100000 per well), TT (200000 per well), Lc-2/ad (100000 per well), BCPAP (10000 per well), 8505-C (10000 per well), PC-9 (10000 per well), A549 (10000 per well), CALU-1 (10000 per well), NIH3T3 RET/C634Y (10000 per well), and NIH3T3 HRAS/G12V (10000 per well) were seeded in six-well tissue culture plates. Cells were kept in 2% (TPC-1), 5% (Nthy-ori-3-1), or 10% (BCPAP, 8505-C, CALU-1, A549, PC-9, TT, MZ-CRC-1, and Lc-2/ad) fetal calf serum or in 2% (NIH3T3 RET/C634Y and HRAS/G12V) calf serum. Ba/F3 cells (200000 per well in 2 mL) were seeded in six-well tissue culture plates and kept in 10% fetal calf serum. The day after plating, different concentrations of the drug or vehicle were added to the medium and changed every 2–3 days. Cells were counted every day (Ba/F3), every 2 days (fibroblasts), or every 2–3 days (human cell lines). To compare cell growth, we performed an unpaired Student’s t test using the Instat software program (Graphpad Software Inc.). […] IC50 doses were calculated through a curve fitting analysis from last day of growth curves using the PRISM software program (Graphpad Software Inc.).

The test system of the next series is NIH3T3 HRAS/G12V tumors. In words: Mouse xenograft, NIH3T3 HRAS/G12V. Type of series: in vivo. On the procedure: In vivo target (RET and VEGFR2) inhibition was studied by treating animals grafted with NIH3T3 RET/C634Y cells at different doses (0.3, 1, or 3 mg/kg/day p.o.) of NPA101.3 for 2 days and then performing Western blot analysis on protein extracts. […] Then, to determine antitumorigenic activity and to better distinguish RET- and VEGFR2-mediated effects, we tested NPA101.3 in nude mice transplanted with NIH3T3 cells transformed by either RET/C634Y or HRAS/G12V. Before tumors appeared, animals were treated daily with NPA101.3 (1.0, 3.0, or 10.0 mg/kg/day) or left untreated. […] Still, VEGFR2 inhibition was detected also in RAS-driven tumors, an effect that might explain the, albeit reduced, effect of the drug on their growth (Figure S13). Importantly, as predicted, no trace of NPA101.3 demethyl metabolites was detected after 1 or 4 h from oral dosing in mice (Figure S14).
Figure 6 Effects of NPA101.3 on in vivo tumor growth. NIH3T3 cells transformed by RET/C634Y or HRAS/G12V were inoculated subcutaneously into nu/nu mice. After 4 days, animals were randomly assigned to receive for the indicated time periods the compound (1.0, 3.0, or 10 mg/kg/day) (24 mice; 8 mice/group for 1, 3, and 10 mg/kg doses) or vehicle (8 mice) by oral gavage. The average size of tumors is reported ± SD.
NPA101.3 was dissolved in 80% H2O, 19.875% Tween 20, and 0.125% xanthan gum. The formulation was stored at room temperature and vortexed prior to administration. NIH3T3 RET/C634Y (200000) or NIH3T3 HRAS/G12V (50000) cells were inoculated subcutaneously into the dorsal portion (both sides) of 6-week-old female BALB/c nu/nu mice (32 mice/cell line) (Jackson Laboratories, Bar Harbor, ME). After 4 days, before tumors had appeared, animals were randomly assigned to receive NPA101.3 (1.0, 3.0, or 10 mg/kg/day) (8 mice/group) or vehicle control (8 mice) by oral gavage. Tumor diameters were measured with caliper every 2–3 days. Tumor volumes (V) were calculated by the rotational ellipsoid formula V = A × B^2/2 (A is the axial diameter, and B is the rotational diameter). […]

T1 sequence (Q12809 whole entry): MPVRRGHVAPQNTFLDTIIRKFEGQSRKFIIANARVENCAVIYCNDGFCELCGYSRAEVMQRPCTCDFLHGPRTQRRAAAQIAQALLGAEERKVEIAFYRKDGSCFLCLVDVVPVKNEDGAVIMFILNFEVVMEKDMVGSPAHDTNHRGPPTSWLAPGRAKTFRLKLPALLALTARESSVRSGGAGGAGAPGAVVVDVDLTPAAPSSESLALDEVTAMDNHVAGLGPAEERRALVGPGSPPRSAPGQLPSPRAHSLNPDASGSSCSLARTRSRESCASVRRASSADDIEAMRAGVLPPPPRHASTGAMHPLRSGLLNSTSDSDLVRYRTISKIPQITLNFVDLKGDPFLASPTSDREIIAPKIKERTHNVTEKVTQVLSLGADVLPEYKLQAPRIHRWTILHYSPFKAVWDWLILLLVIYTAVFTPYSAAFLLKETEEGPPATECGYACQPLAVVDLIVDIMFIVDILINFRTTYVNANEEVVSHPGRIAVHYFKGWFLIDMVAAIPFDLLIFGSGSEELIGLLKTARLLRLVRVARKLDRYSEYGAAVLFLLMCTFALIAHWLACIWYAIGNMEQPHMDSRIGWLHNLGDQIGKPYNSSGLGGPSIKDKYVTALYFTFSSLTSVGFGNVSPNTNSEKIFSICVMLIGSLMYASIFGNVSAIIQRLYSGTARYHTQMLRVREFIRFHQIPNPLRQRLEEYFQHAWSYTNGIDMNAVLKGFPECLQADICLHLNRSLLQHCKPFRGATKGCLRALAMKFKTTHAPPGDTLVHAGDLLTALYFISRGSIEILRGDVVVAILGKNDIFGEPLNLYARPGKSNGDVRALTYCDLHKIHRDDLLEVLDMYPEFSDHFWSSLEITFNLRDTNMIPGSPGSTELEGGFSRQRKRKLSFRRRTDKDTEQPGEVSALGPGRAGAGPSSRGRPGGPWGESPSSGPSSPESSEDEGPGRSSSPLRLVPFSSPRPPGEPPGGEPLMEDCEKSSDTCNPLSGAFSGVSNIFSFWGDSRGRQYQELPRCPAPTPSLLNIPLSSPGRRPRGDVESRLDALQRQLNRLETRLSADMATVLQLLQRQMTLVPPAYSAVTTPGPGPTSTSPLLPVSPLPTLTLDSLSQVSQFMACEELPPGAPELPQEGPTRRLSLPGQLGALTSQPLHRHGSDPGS

The inhibition is the relative decrease from the control value, in per cent. A low value points to a weak effect. For the compound `CC(C)(C)c1cc(NC(=O)Cc2ccc(-n3cnc4cc(-c5ccc(S(C)(=O)=O)cc5)ccc43)cc2)no1` [NPA101.3], the “hERG IC50 relative to RET IC50” value at hERG (hERG 7.57 μM vs RET 1 nM) is listed as > 7000 fold. Also, the inhibition at 0.1 µM against hERG (human, HEK293 cells expressing inducible hERG, 0.1 µM) turned out to be 0.41%. This compound yielded an inhibition at 1 µM on hERG (human, HEK293 cells expressing inducible hERG, 1 µM) of 14.6%. This compound displayed an inhibition at 10 µM against hERG (human, HEK293 cells expressing inducible hERG, 10 µM) of 55.9%. For the same compound, in series [1], the IC50 was in the range of 1.6 to 3.1 nM. The IC50 in series [2] was 0.67 to 3.6 nM. Also, the “formation of tumors driven by HRAS/G12V” value in the series on NIH3T3 HRAS/G12V tumors (10 mg/kg/day oral, nu/nu mice) is “weakened, but did not abrogate; also recorded: reduced, but did not abrogate”. Further, in the series on NIH3T3 HRAS/G12V tumors (3 h after last dose), the “RAS signaling (MAPK phosphorylation) in NIH3T3 HRAS/G12V tumors” value was “virtually no effect” and the “VEGFR2 inhibition in RAS-driven tumors” value was “detected”.
